Source: patent US20240336654A1, “ANTIMICROBIAL PEPTIDOMIMETICS” (SPEXIS AG, priority 2021, published 2024)
Where a SMILES comes first, the peptide text is derived from it. Bridges are numbered along the chain shown (N, C = ends). [ ]: non-standard residue; d: D form. The star is where a group is joined. Val(Nα-amidino) = CC(C)[C@H](NC(=N)N)C(=O)*; Gly(cPent) = N[C@H](C(=O)O)C1CCCC1; Hyp = O=C(O)[C@@H]1C[C@@H](O)CN1; Pen = CC(C)(S)[C@H](N)C(=O)O; dDab = NCC[C@@H](N)C(=O)O; Orn = NCCC[C@H](N)C(=O)O; Dab = NCC[C@H](N)C(=O)O

Columns and labels:
Type in all cases: cell-based
[1] = tested on: Escherichia coli MCR-1 Af 45; settings: MCR-1 Af 45
Method in brief: (§1)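 MICs were determined by CLSI broth microdilution in cation-adjusted Mueller-Hinton II broth with about 5×10^5 CFU/mL inoculum. Peptides were tested in two-fold serial dilutions with 0.002% polysorbate 80 final. MIC in μg/mL is the lowest concentration with no visible growth after 18-20 h at 35 °C.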

[2] = tested on: Klebsiella pneumoniae SSI3010; settings: SSI3010
Method in brief: as §1

[3] = tested on: Escherichia coli ATCC 25922; settings: ATCC 25922
Method in brief: as §1

[4] = tested on: human red blood cells (hRBC); settings: red cells of human, 1 h, 200 μg/mL
Method in brief: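 Percent hemolysis derived from OD540 of supernatants relative to full lysis by 2.5% Triton X-100 (PBS baseline). Washed fresh human erythrocytes (20% v/v) were exposed to 200 μg/mL peptide for 1 h at 37 °C with shaking.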

Escherichia coli MCR-1 Af45 MIC [1] [µg/mL]	Klebsiella pneumoniae SSI3010 MIC [2] [µg/mL]	Escherichia coli ATCC 25922 MIC [3] [µg/mL]	SMILES	Hemolysis at 0.2 g/L [4] [%]
0.0625	0.25	0.125	CC[C@H](C)[C@H](NC(=O)[C@@H]1C[C@@H](O)CN1C(=O)[C@@H](NC(=N)N)C(C)C)C(=O)N[C@@H]1C(=O)N[C@@H](Cc2ccc(O)cc2)C(=O)N[C@@H]([C@@H](C)O)C(=O)N[C@@H](CC(N)=O)C(=O)N[C@@H](CCCNC(=N)N)C(=O)N[C@@H](CCN)C(=O)N[C@@H]([C@@H](C)O)C(=O)N[C@H](CCN)C(=O)N[C@@H](CCN)C(=O)N[C@@H](CCN)C(=O)N[C@@H](CO)C(=O)N[C@H](C(=O)N[C@@H](Cc2ccc(O)cc2)C(=O)O)CSSC1(C)C [Example 127, Gua-Val-Hyp-Ile-Pen-Tyr-Thr-Asn-Arg-Dab-Thr-^DDab-Dab-Dab-Ser-Cys-Tyr] ({Val(Nα-amidino)}-[Hyp]I[Pen]YTNR[Dab]T[dDab][Dab][Dab]SCY-OH; disulfide 3-14)	<1
0.125	0.25	0.125	CC[C@H](C)[C@H](NC(=O)[C@@H]1C[C@@H](O)CN1C(=O)[C@@H](NC(=N)N)C(C)C)C(=O)N[C@@H]1C(=O)N[C@@H](Cc2ccc(O)cc2)C(=O)N[C@@H]([C@@H](C)O)C(=O)N[C@@H](CC(N)=O)C(=O)N[C@@H](CCCNC(=N)N)C(=O)N[C@@H](CCN)C(=O)N[C@@H]([C@@H](C)O)C(=O)N[C@H](CCN)C(=O)N[C@@H](CCCN)C(=O)N[C@@H](CCN)C(=O)N[C@@H](CO)C(=O)N[C@H](C(=O)N[C@@H](Cc2ccc(O)cc2)C(=O)O)CSSC1(C)C [Example 128, Gua-Val-Hyp-Ile-Pen-Tyr-Thr-Asn-Arg-Dab-Thr-^DDab-Orn-Dab-Ser-Cys-Tyr] ({Val(Nα-amidino)}-[Hyp]I[Pen]YTNR[Dab]T[dDab][Orn][Dab]SCY-OH; disulfide 3-14)	<1
0.125	0.5	0.125	CC[C@H](C)[C@H](NC(=O)[C@@H]1C[C@@H](O)CN1C(=O)[C@@H](NC(=N)N)C(C)C)C(=O)N[C@@H]1C(=O)N[C@@H](Cc2ccc(O)cc2)C(=O)N[C@@H](CCN)C(=O)N[C@@H](CC(N)=O)C(=O)N[C@@H](CCCNC(=N)N)C(=O)N[C@@H](CCN)C(=O)N[C@@H]([C@@H](C)O)C(=O)N[C@H](CCN)C(=O)N[C@@H](CCN)C(=O)N[C@@H]([C@@H](C)O)C(=O)N[C@@H](CO)C(=O)N[C@H](C(=O)N[C@@H](Cc2ccc(O)cc2)C(=O)O)CSSC1(C)C [Example 129, Gua-Val-Hyp-Ile-Pen-Tyr-Dab-Asn-Arg-Dab-Thr-^DDab-Dab-Thr-Ser-Cys-Tyr] ({Val(Nα-amidino)}-[Hyp]I[Pen]Y[Dab]NR[Dab]T[dDab][Dab]TSCY-OH; disulfide 3-14)	<1
0.125	0.25	0.125	CC[C@H](C)[C@H](NC(=O)[C@@H]1C[C@@H](O)CN1C(=O)[C@@H](NC(=N)N)C(C)C)C(=O)N[C@@H]1C(=O)N[C@@H](Cc2ccc(O)cc2)C(=O)N[C@@H](CCN)C(=O)N[C@@H](CC(N)=O)C(=O)N[C@@H](CCCNC(=N)N)C(=O)N[C@@H](CCN)C(=O)N[C@@H]([C@@H](C)O)C(=O)N[C@H](CCN)C(=O)N[C@@H](CCCN)C(=O)N[C@@H]([C@@H](C)O)C(=O)N[C@@H](CO)C(=O)N[C@H](C(=O)N[C@@H](Cc2ccc(O)cc2)C(=O)O)CSSC1(C)C [Example 130, Gua-Val-Hyp-Ile-Pen-Tyr-Dab-Asn-Arg-Dab-Thr-^DDab-Orn-Thr-Ser-Cys-Tyr] ({Val(Nα-amidino)}-[Hyp]I[Pen]Y[Dab]NR[Dab]T[dDab][Orn]TSCY-OH; disulfide 3-14)	<1
0.125	0.5	0.25	CC[C@H](C)[C@H](NC(=O)[C@@H]1C[C@@H](O)CN1C(=O)[C@@H](NC(=N)N)C(C)C)C(=O)N[C@@H]1C(=O)N[C@@H](Cc2ccc(O)cc2)C(=O)N[C@@H]([C@@H](C)O)C(=O)N[C@@H](CC(N)=O)C(=O)N[C@@H](CCCNC(=N)N)C(=O)N[C@@H](CCN)C(=O)N[C@@H]([C@@H](C)O)C(=O)N[C@H](CCN)C(=O)N[C@@H](CCCCN)C(=O)N[C@@H](CCN)C(=O)N[C@@H]([C@@H](C)O)C(=O)N[C@H](C(=O)N[C@@H](Cc2ccc(O)cc2)C(=O)O)CSSC1(C)C [Example 131, Gua-Val-Hyp-I-Pen-Tyr-Thr-Asn-Arg-Dab-Thr-^DDab-Lys-Dab-Thr-Cys-Tyr] ({Val(Nα-amidino)}-[Hyp]I[Pen]YTNR[Dab]T[dDab]K[Dab]TCY-OH; disulfide 3-14)	<1
0.125	0.25	0.25	CC[C@H](C)[C@H](NC(=O)[C@@H]1C[C@@H](O)CN1C(=O)[C@@H](NC(=N)N)C(C)C)C(=O)N[C@@H]1C(=O)N[C@@H](Cc2ccc(O)cc2)C(=O)N[C@@H]([C@@H](C)O)C(=O)N[C@@H](CC(N)=O)C(=O)N[C@@H](CCCNC(=N)N)C(=O)N[C@@H](CCN)C(=O)N[C@@H]([C@@H](C)O)C(=O)N[C@H](CCN)C(=O)N[C@@H](CCN)C(=O)N[C@@H](CCN)C(=O)N[C@@H]([C@@H](C)O)C(=O)N[C@H](C(=O)N[C@@H](Cc2ccc(O)cc2)C(=O)O)CSSC1(C)C [Example 132, Gua-Val-Hyp-Ile-Pen-Tyr-Thr-Asn-Arg-Dab-Thr-^DDab-Dab-Dab-Thr-Cys-Tyr] ({Val(Nα-amidino)}-[Hyp]I[Pen]YTNR[Dab]T[dDab][Dab][Dab]TCY-OH; disulfide 3-14)	<1
0.125	0.25	0.25	CC[C@H](C)[C@H](NC(=O)[C@@H]1C[C@@H](O)CN1C(=O)[C@@H](NC(=N)N)C(C)C)C(=O)N[C@@H]1C(=O)N[C@@H](Cc2ccc(O)cc2)C(=O)N[C@@H]([C@@H](C)O)C(=O)N[C@@H](CC(N)=O)C(=O)N[C@@H](CCCNC(=N)N)C(=O)N[C@@H](CCN)C(=O)N[C@@H]([C@@H](C)O)C(=O)N[C@H](CCN)C(=O)N[C@@H](CCCN)C(=O)N[C@@H](CCN)C(=O)N[C@@H]([C@@H](C)O)C(=O)N[C@H](C(=O)N[C@@H](Cc2ccc(O)cc2)C(=O)O)CSSC1(C)C [Example 133, Gua-Val-Hyp-Ile-Pen-Tyr-Thr-Asn-Arg-Dab-Thr-^DDab-Orn-Dab-Thr-Cys-Tyr] ({Val(Nα-amidino)}-[Hyp]I[Pen]YTNR[Dab]T[dDab][Orn][Dab]TCY-OH; disulfide 3-14)	<1
0.125	0.25	0.125	CC(C)[C@H](NC(=N)N)C(=O)N1C[C@H](O)C[C@H]1C(=O)N[C@H](C(=O)N[C@@H]1C(=O)N[C@@H](Cc2ccc(O)cc2)C(=O)N[C@@H]([C@@H](C)O)C(=O)N[C@@H](CC(N)=O)C(=O)N[C@@H](CCCNC(=N)N)C(=O)N[C@@H](CCN)C(=O)N[C@@H]([C@@H](C)O)C(=O)N[C@H](CCN)C(=O)N[C@@H](CO)C(=O)N[C@@H](CCN)C(=O)N[C@@H](CCN)C(=O)N[C@H](C(=O)N[C@@H](Cc2ccc(O)cc2)C(=O)O)CSSC1(C)C)C1CCCC1 [Example 134, Gua-Val-Hyp-Cpg-Pen-Tyr-Thr-Asn-Arg-Dab-Thr-^DDab-Ser-Dab-Dab-Cys-Tyr] ({Val(Nα-amidino)}-[Hyp][Gly(cPent)][Pen]YTNR[Dab]T[dDab]S[Dab][Dab]CY-OH; disulfide 3-14)	<1
